Assay results published in patent US8450266B2 (Ipsen Pharma S.A.S., priority 2008, dated 2013).
Where a SMILES comes first, the peptide text is derived from it. [ ]: non-standard residue; d: D form. The star is where a group is joined. Myristoyl = CCCCCCCCCCCCCC(=O)*; Decanoyl = CCCCCCCCCC(=O)*; Ac6c = NC1(C(=O)O)CCCCC1; Orn = NCCC[C@H](N)C(=O)O; X1 = CCCN1C(=O)CC(*)C1=O

Experiments:
[1] = Human plasma half-life assay (LC-MS); type: in vitro ADME; details: incubated at 37° C., read-out: Human Plasma T½ (converted)
Description: (§1) B. Human and Rat Plasma Half-Life Assay
(§2) 50 μl, was removed at various times, like at 0, 1, 2, 3, 4, 8, 24, 32, 48, 56, 72 hours, mixed with 5 μL formic acid and 150 μL acetonitrile in a microcentrifuge tube, vertexed, and centrifuged for 10 minutes at 10K rpm. The supernatant was transferred to an injection vial and analyzed by LC-MS. The LC-MS system consisted of an API4000 mass spectrometer with an ESI probe. Positive ion mode and full scan detection were used. HPLC separation was carried out on a Luna 3μ C8 (2), 2×30 mm column with a gradient from 90% A to 90% B in 10 minutes at a flow rate of 0.3 ml/min. Buffer A was 1% formic acid in water and buffer B was 1% formic acid acetonitrile.

[2] = Rat plasma half-life assay (LC-MS); type: in vitro ADME; details: incubated at 37° C., read-out: Rat Plasma T½ (converted)
Description: as §1, §2

SMILES | half-life at 0.1 mg/ml [1] [h] | half-life at 0.1 mg/ml [2] [h] | half-life at 0.1 mg/mL [1] [h] | half-life at 0.1 mg/mL [2] [h]
CCCCCCCCCC(=O)NCCC[C@H](NC(=O)[C@H](CCCCN)NC(=O)[C@H](CCC(N)=O)NC(=O)[C@H](C)NC(=O)[C@H](CC(C)C)NC(=O)[C@H](CC(C)C)NC(=O)[C@H](Cc1c[nH]c2ccccc12)NC(=O)[C@H](CC(N)=O)NC(=O)[C@@H](NC(=O)[C@H](Cc1ccccc1)NC(=O)[C@H](CC(=O)O)NC(=O)[C@H](CCC(N)=O)NC(=O)[C@H](CCC(N)=O)NC(=O)[C@H](Cc1c[nH]cn1)NC(=O)[C@@H](NC(=O)[C@H](CCCCN)NC(=O)[C@H](CC(=O)O)NC(=O)[C@H](CCSC)NC(=O)[C@H](C)NC(=O)[C@@H](NC(=O)[C@H](CO)NC(=O)[C@H](Cc1ccc(O)cc1)NC(=O)[C@H](CC(=O)O)NC(=O)[C@H](CO)NC(=O)C1(NC(C)=O)CCCCC1)[C@@H](C)CC)[C@@H](C)CC)C(C)C)C(=O)N[C@@H](CCCCN)C(=O)N[C@@H](CCCCN)C(=O)N[C@@H](CC(N)=O)C(=O)N[C@@H](CC(=O)O)C(=O)N[C@@H](Cc1c[nH]c2ccccc12)C(=O)N[C@@H](CCCCN)C(=O)N[C@@H](Cc1c[nH]cn1)C(=O)N[C@@H](CC(N)=O)C(=O)N[C@H](C(=O)N[C@H](C(=O)N[C@@H](CCC(N)=O)C(=O)O)[C@@H](C)O)[C@@H](C)CC [Example 13, [Ac-A6c^7, Orn^31(N-C(O)-(CH2)8-CH3)]hGIP(7-42)-OH] (Ac-[Ac6c]SDYSIAMDKIHQQDFVNWLLAQK[Orn](Decanoyl)KKNDWKHNITQ-OH) | 17.8 | 19 | – | –
CCCCCCCCCCCCCC(=O)NCCC[C@H](NC(=O)[C@H](CCCCN)NC(=O)[C@H](CCC(N)=O)NC(=O)[C@H](C)NC(=O)[C@H](CC(C)C)NC(=O)[C@H](CC(C)C)NC(=O)[C@H](Cc1c[nH]c2ccccc12)NC(=O)[C@H](CC(N)=O)NC(=O)[C@@H](NC(=O)[C@H](Cc1ccccc1)NC(=O)[C@H](CC(=O)O)NC(=O)[C@H](CCC(N)=O)NC(=O)[C@H](CCC(N)=O)NC(=O)[C@H](Cc1c[nH]cn1)NC(=O)[C@@H](NC(=O)[C@H](CCCCN)NC(=O)[C@H](CC(=O)O)NC(=O)[C@H](CCSC)NC(=O)[C@H](C)NC(=O)[C@@H](NC(=O)[C@H](CO)NC(=O)[C@H](Cc1ccc(O)cc1)NC(=O)[C@H](CC(=O)O)NC(=O)[C@H](CO)NC(=O)C1(NC(C)=O)CCCCC1)[C@@H](C)CC)[C@@H](C)CC)C(C)C)C(=O)N[C@@H](CCCCN)C(=O)N[C@@H](CCCCN)C(=O)N[C@@H](CC(N)=O)C(=O)N[C@@H](CC(=O)O)C(=O)N[C@@H](Cc1c[nH]c2ccccc12)C(=O)N[C@@H](CCCCN)C(=O)N[C@@H](Cc1c[nH]cn1)C(=O)N[C@@H](CC(N)=O)C(=O)N[C@H](C(=O)N[C@H](C(=O)N[C@@H](CCC(N)=O)C(=O)O)[C@@H](C)O)[C@@H](C)CC [Example 12, [Ac-A6c^7, Orn^31(N-C(O)-(CH2)12-CH3)]hGIP(7-42)-OH] (Ac-[Ac6c]SDYSIAMDKIHQQDFVNWLLAQK[Orn](Myristoyl)KKNDWKHNITQ-OH) | – | – | 7.3 | > 72
CCCC[C@H](NC(=O)[C@H](C)NC(=O)[C@@H](NC(=O)[C@H](CO)NC(=O)[C@H](Cc1ccc(O)cc1)NC(=O)[C@H](CC(=O)O)NC(=O)[C@H](CO)NC(=O)C1(NC(=O)[C@@H](N)Cc2ccccc2)CCCC1)[C@@H](C)CC)C(=O)N[C@@H](CC(=O)O)C(=O)N[C@@H](CCCCN)C(=O)N[C@H](C(=O)N[C@@H](Cc1c[nH]cn1)C(=O)N[C@@H](CCC(N)=O)C(=O)N[C@@H](CCC(N)=O)C(=O)N[C@@H](CC(=O)O)C(=O)N[C@@H](Cc1ccccc1)C(=O)N[C@H](C(=O)N[C@@H](CC(N)=O)C(=O)N[C@@H](Cc1c[nH]c2ccccc12)C(=O)N[C@@H](CC(C)C)C(=O)N[C@@H](CC(C)C)C(=O)N[C@@H](C)C(=O)N[C@@H](CCC(N)=O)C(=O)N[C@@H](CCCCN)C(N)=O)C(C)C)[C@@H](C)CC [Example 35, (A5c^7, Nle^14)hGIP(6-30)-NH2] (HELM PEPTIDE1{F.[O=C(C1(N[*:1])CCCC1)[*:2]].S.D.Y.S.I.A.[Nle].D.K.I.H.Q.Q.D.F.V.N.W.L.L.A.Q.K.[am]}$$$$V2.0) | – | – | 16.5 | 23
CC[C@H](C)[C@H](NC(=O)[C@H](CO)NC(=O)[C@H](Cc1ccc(O)cc1)NC(=O)[C@H](CC(=O)O)NC(=O)[C@H](CO)NC(=O)C1(NC(C)=O)CCCCC1)C(=O)N[C@@H](C)C(=O)N[C@@H](CCSC)C(=O)N[C@@H](CC(=O)O)C(=O)N[C@@H](CCCCN)C(=O)N[C@H](C(=O)N[C@@H](Cc1c[nH]cn1)C(=O)N[C@@H](CCC(N)=O)C(=O)N[C@@H](CCC(N)=O)C(=O)N[C@@H](CC(=O)O)C(=O)N[C@@H](Cc1ccccc1)C(=O)N[C@H](C(=O)N[C@@H](CC(N)=O)C(=O)N[C@@H](Cc1c[nH]c2ccccc12)C(=O)N[C@@H](CC(C)C)C(=O)N[C@@H](CC(C)C)C(=O)N[C@@H](C)C(=O)N[C@@H](CCC(N)=O)C(=O)N[C@@H](CCCCN)C(=O)N[C@@H](Cc1ccc2ccccc2c1)C(=O)N[C@@H](CCCCN)C(=O)N[C@@H](CCCCN)C(=O)N[C@@H](CC(N)=O)C(=O)N[C@@H](CC(=O)O)C(=O)N[C@@H](Cc1c[nH]c2ccccc12)C(=O)N[C@@H](CCCCN)C(=O)N[C@@H](Cc1c[nH]cn1)C(=O)N[C@@H](CC(N)=O)C(=O)N[C@H](C(=O)N[C@H](C(=O)N[C@@H](CCC(N)=O)C(=O)O)[C@@H](C)O)[C@@H](C)CC)C(C)C)[C@@H](C)CC [Example 24, (Ac-A6c^7, 2Nal^31)hGIP(7-42)-OH] (HELM PEPTIDE1{[ac].[O=C(C1(N[*:1])CCCCC1)[*:2]].S.D.Y.S.I.A.M.D.K.I.H.Q.Q.D.F.V.N.W.L.L.A.Q.K.[O=C([C@H](Cc1ccc2ccccc2c1)N[*:1])[*:2]].K.K.N.D.W.K.H.N.I.T.Q}$$$$V2.0) | – | – | 26.3 | 12.2
CCCN1C(=O)CC(SC[C@H](NC(=O)[C@H](CCCCN)NC(=O)[C@H](CCC(N)=O)NC(=O)[C@H](C)NC(=O)[C@H](CC(C)C)NC(=O)[C@H](CC(C)C)NC(=O)[C@H](Cc2c[nH]c3ccccc23)NC(=O)[C@H](CC(N)=O)NC(=O)[C@@H](NC(=O)[C@H](Cc2ccccc2)NC(=O)[C@H](CC(=O)O)NC(=O)[C@H](CCC(N)=O)NC(=O)[C@H](CCC(N)=O)NC(=O)[C@H](Cc2c[nH]cn2)NC(=O)[C@@H](NC(=O)[C@H](CCCCN)NC(=O)[C@H](CC(=O)O)NC(=O)[C@H](CCSC)NC(=O)[C@H](C)NC(=O)[C@@H](NC(=O)[C@H](CO)NC(=O)[C@H](Cc2ccc(O)cc2)NC(=O)[C@H](CC(=O)O)NC(=O)[C@H](CO)NC(=O)C2(NC(C)=O)CCCCC2)[C@@H](C)CC)[C@@H](C)CC)C(C)C)C(=O)N[C@@H](CCCCN)C(=O)N[C@@H](CCCCN)C(=O)N[C@@H](CC(N)=O)C(=O)N[C@@H](CC(=O)O)C(=O)N[C@@H](Cc2c[nH]c3ccccc23)C(=O)N[C@@H](CCCCN)C(=O)N[C@@H](Cc2c[nH]cn2)C(=O)N[C@@H](CC(N)=O)C(=O)N[C@H](C(=O)N[C@H](C(=O)N[C@@H](CCC(N)=O)C(=O)O)[C@@H](C)O)[C@@H](C)CC)C1=O (stereo partly shown) [Example 10, [Ac-A6c^7, Cys(Psu)^31]hGIP(7-42)-OH] (Ac-[Ac6c]SDYSIAMDKIHQQDFVNWLLAQKC(X1)KKNDWKHNITQ-OH) | – | – | 8 | 2.6
